# “Also recorded” adds a separate entry of the source.
# Tests used:
# [1] = system: Waldenstrom's macroglobulinemia (WM); experiment: Prior therapies of the WM patient (case history); type: in vivo, human
# [2] = system: NF-κB p-p50; experiment: Immunohistochemistry of NF-κB p-p50 in tumor biopsies of NHL patients treated with Compound 1; type: in vivo, human; settings: paired biopsies before and after/during treatment with Compound 1 (3 cases)
# Protocol: Formalin-fixed, paraffin-embedded sections of human tonsil and lymphoma were used. Tissue sections (5 μm) were deparaffinized, and antigen retrieval was carried out at 90-100° C. in citrate buffer for 10-40 min. The sections were incubated in 1% […] for 10 minutes to quench endogenous tissue peroxidase. Tissue sections were then incubated with primary NF-κB p-p50-specific antibody for 1 hour at room temperature. The primary NF-κB p-p50-specific antibody used NF-κB p-p50 (S337), sc-271908 from Santa Cruz Biotechnology. The slides were stained using a standard EnVision+System-HRP kit (DAKO, Carpinteria, CA) according to the manufacture's protocol. Immunohistochemical reactions were developed with diaminobenzidine as the chromogenic peroxidase substrate, and slides were counterstained with hematoxylin. Negative control samples included replacement of the primary antibody with nonimmune IgG1 (Dako).
# Specifically, nuclear and/or cytoplasmic expression of NF-kappaB p-p50 was found in all 6 SD cases treated with 50 mg QD (2 cases, tumor regression), 50 mg BID (1 case), 200 BID (1 case, tumor regression) and 400 BID (2 cases). Expression of NF-kappaB p-p50 was not detected in 7 of 8 cases with PD including patients treated with 50 mg QD (1 case), 100 mg QD (1 case), 100 mg BID (3 cases), 200 mg BID (1 case) and 400 BID (1 case). […]
# [3] = system: NF-kB p-p50 S337 in TF-1 cells; experiment: Western blot of NF-kB p-p50 S337 in TF-1 (AML) cells; type: cell-based; settings: TF-1 cells (AML cells, FIG. 13B), 3 μM and 10 μM, 48 h, vs DMSO
# Protocol: (§1) At 48 h post-treatment, cell lysates were obtained. Protein sample concentration was quantified and equal amount 20 μg of whole protein extract was loaded in each well of SDS-polyacrylamide gel. Cell extracts were separated by 10% SDS-PAGE, transferred to nitrocellulose membrane, and probed as indicated. The following antibodies were used for immunoblot analysis: NF-kB p-p50 S337 (Santa Cruz Biotechnology) and b-actin (Cell Signaling Technology).
# [4] = Oral pharmacokinetics of Compound 1 in humans (FIG. 7); type: in vivo, human
# Description: In summary, the oral pharmacokinetics of Compound 1 are desirable.
# [5] = system: NF-kB p-p50 S337 in OCL-LY10 cells; experiment: Western blot of NF-kB p-p50 S337 in OCL-LY10 cells; type: cell-based; settings: 3 μM and 10 μM, 48 h, vs DMSO
# Protocol: as §1
# [6] = system: resistant or refractory, advanced NHL; experiment: Phase I dose escalation trial of Compound 1 in NHL (NCT03328078): tumor response; type: in vivo, human; settings: patient with DLBCL-GCB; initial dose 200 mg bid, final dose 300 mg bid
# Protocol: (§5) Seven dosing cohorts included 50 and 100 mg QD, and 50, 100, 200, 300, or 400 mg BID of daily continuous oral monotherapy in 21-Day cycles. Objective included safety and tolerance (primary), pk/pd and early efficacy (secondary), and biomarker correlations (exploratory). 31 patients with resistant or refractory, advanced NHL have been enrolled.
# [7] = Phase 1 study of Compound 1 in AML or high risk MDS (NCT04278768): safety; type: in vivo; settings: Cohort 1, 200 mg BID
# Protocol: (§2) This study will be conducted in 2 parts: an initial dose escalation and dose expansion phase. […] Three patients with AML or MDS will be enrolled at the designated dose. If none of the first 3 patients experience a DLT during the first cycle, patients may be enrolled into the next higher dose level of 300 mg bid until a safe and effective RP2D is established.
# (§3) This study is expected to enroll approximately 18 patients to establish the initial RP2D.
# (§4) The major study inclusion and exclusion criteria are as follows: Relapsed or refractory AML (primary or secondary, including treatment-related) after at least one standard treatment (including chemotherapy, re-induction therapy or stem cell transplantation) based on the assessment of the investigator or high/very high risk relapsed/refractory MDS (IPSS-R criteria), following at least 6 cycles of hypomethylating agents [HMA] or evidence of early progression.
# [8] = system: AML or high risk MDS; experiment: Phase 1 study of Compound 1 in AML or high risk MDS (NCT04278768): marrow response; type: in vivo, human; settings: initial patients, 200 or 300 mg BID
# Protocol: as §2, §3, §4
# [9] = system: Waldenstrom's macroglobulinemia (WM); experiment: WM patient case on Compound 1 with intra-patient dose escalation: IgM, m-protein, response; type: in vivo, human
# Protocol: The patient remained asymptomatic for over 4 years with a slow increase in m-protein and IgM during that time. By mid-2017 they started to experience increased fatigue. […] There was no evidence of CXCR4 genomic alteration. […] Several options were discussed including clinical trials and standard of care Bruton's tyrosine kinase inhibitor (BTKi) therapy.
# Baseline testing in December 2018 included a bone marrow biopsy showing 5-10% involvement by WM, m-protein of 1.66 g/dL, IgM 2,801 mg/dL, and a computed tomography scan without pathological lymphadenopathy or hepatosplenomegaly. Quantitative immunoglobulins and serum protein electrophoresis were obtained each cycle to determine response to treatment (FIG. 1).
# The patient initiated treatment at the first dose level, 50 mg. […] Using a standard 3+3 design the subsequent dose level, 100 mg po BID, was cleared per protocol. Considering evidence of response without noted toxicity, the patient was a candidate to escalate to 100 mg po BID starting with cycle 7 day 1 in April 2019. […] They reported a significant improvement in their quality of life with resolution of fatigue and returned to a rigorous daily exercise program that they had been unable to perform for the last 2 years due to WM-related symptoms. […]
# [10] = Phase I dose escalation trial of Compound 1 in NHL (NCT03328078): safety and tolerance; type: in vivo, human
# Protocol: as §5
compound,measurement,setting,value
rituximab,response,"[1]; induction 375 mg/m^2 IV weekly for 8 weeks then maintenance, 2005-2007",very good partial remission
same,IgM,"[1]; retreatment 2011, numeric increase from 1476",2042 mg/dL
same,response,[1]; retreatment June-September 2011,stable disease
Cc1cc(-c2nc(C(=O)Nc3cc4oc(N5CCOCC5)nc4nc3N3CC[C@@H](O)C3)co2)ccn1 [Compound 1],NF-κB phospho-p50 expression in tumor biopsies,[2],significant downregulation; also recorded: inhibited
same,expression of NF-kB p-p50 S337 (Western blot),[3],downregulated
same,half-life,"[4]; human, plasma, oral administration",~6 h
same,accumulation at steady state,[4]; multiple daily twice dose administration,Moderate accumulation
same,time of maximum plasma concentrations post dose,[4]; oral administration,0.5 to 8 h
same,expression of NF-kB p-p50 S337 (Western blot),[5],downregulated
same,Tumor Reduction,[6],35%
same,DLT 1st cycle,[7]; 3 patients with hr-MDS,No DLT
same,dose reductions for Gr. 3 dizziness,[7]; C2,1
same,marrow response,[8],several marrow complete responses
same,fatigue,"[9]; 200 mg po BID, by the summer of 2019",completely resolved
same,response,"[9]; cycles 7 and 8, 100 mg po BID",stable disease
same,"Anemia, All Grades, [E]","[10]; 200 mg BID, N = 5",[1]
same,"Neutropenia, All Grades, [E]","[10]; 200 mg BID, N = 5",[3]
same,"Neutropenia, Grade 3 or Higher, [E]","[10]; 200 mg BID, N = 5",[2]
same,"Anemia, All Grades, [E]","[10]; 300 mg BID, N = 6",[3]
same,"Neutropenia, All Grades, [E]","[10]; 300 mg BID, N = 6",[5]
same,"Neutropenia, Grade 3 or Higher, [E]","[10]; 300 mg BID, N = 6",[1]
same,"Anemia, All Grades, [E]","[10]; 400 mg BID, N = 8",[1]
same,"Anemia, Grade 3 or Higher, [E]","[10]; 400 mg BID, N = 8",[1]
same,"Neutropenia, All Grades, [E]","[10]; 400 mg BID, N = 8",[3]
same,"Thrombocytopenia, All Grades, [E]","[10]; 400 mg BID, N = 8",[2]
same,"Thrombocytopenia, Grade 3 or Higher, [E]","[10]; 400 mg BID, N = 8",[2]
same,tolerability overall,"[10]; 31 NHL patients, 50 mg QD to 400 mg BID",well tolerated; also recorded: good safety and tolerance
same,creatine phosphokinase (CPK/CK) elevation,"[10]; WM patient, 200 mg po BID, asymptomatic, resolved with exercise moderation",grade 2
same,tolerability,"[10]; WM patient, first dose level, 50 mg",tolerated therapy well without adverse events
